{"source": "PubChem BioAssay (NCI)", "assay_in_all_cases": "growth of human tumour cells (NCI), 48 h", "key": {"NCI-H460 lung": {"test_system": "NCI-H460 lung"}, "NCI-H522 lung": {"test_system": "NCI-H522 lung"}, "NCI/ADR-RES ovarian": {"test_system": "NCI/ADR-RES ovarian"}, "OVCAR-3 ovarian": {"test_system": "OVCAR-3 ovarian"}, "OVCAR-4 ovarian": {"test_system": "OVCAR-4 ovarian"}, "OVCAR-5 ovarian": {"test_system": "OVCAR-5 ovarian"}, "OVCAR-8 ovarian": {"test_system": "OVCAR-8 ovarian"}, "PC-3 prostate": {"test_system": "PC-3 prostate"}, "RPMI-8226 leukemia": {"test_system": "RPMI-8226 leukemia"}, "RXF 393 renal": {"test_system": "RXF 393 renal"}, "SF-268 CNS": {"test_system": "SF-268 CNS"}, "SF-295 CNS": {"test_system": "SF-295 CNS"}, "SF-539 CNS": {"test_system": "SF-539 CNS"}, "SK-MEL-2 melanoma": {"test_system": "SK-MEL-2 melanoma"}, "SK-MEL-28 melanoma": {"test_system": "SK-MEL-28 melanoma"}, "SK-MEL-5 melanoma": {"test_system": "SK-MEL-5 melanoma"}, "SK-OV-3 ovarian": {"test_system": "SK-OV-3 ovarian"}, "SN12C renal": {"test_system": "SN12C renal"}, "SNB-19 CNS": {"test_system": "SNB-19 CNS"}, "SNB-75 CNS": {"test_system": "SNB-75 CNS"}, "SR leukemia": {"test_system": "SR leukemia"}, "SW-620 colon": {"test_system": "SW-620 colon"}, "T-47D breast": {"test_system": "T-47D breast"}, "TK-10 renal": {"test_system": "TK-10 renal"}, "UACC-257 melanoma": {"test_system": "UACC-257 melanoma"}, "UACC-62 melanoma": {"test_system": "UACC-62 melanoma"}, "UO-31 renal": {"test_system": "UO-31 renal"}}, "note": "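Briefly, cells in 96-well plates were exposed to five compound concentrations for 48 h, and endpoints were estimated by linear interpolation. Here, GI50 denotes the concentration required for 50% inhibition of growth. TGI marks complete inhibition of growth.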"}
{"smiles": "O=C(Nc1ccc(-c2nc(-c3cccc(O)c3)c(-c3ccnc(Br)c3)[nH]2)cc1)c1ccccc1", "values": [{"measurement": "GI50", "setting": "NCI-H460 lung", "result": 2.45, "unit": "µM"}, {"measurement": "TGI", "setting": "NCI-H460 lung", "result": 6.52, "unit": "µM"}, {"measurement": "GI50", "setting": "NCI-H522 lung", "result": 2.01, "unit": "µM"}, {"measurement": "TGI", "setting": "NCI-H522 lung", "result": 5.35, "unit": "µM"}, {"measurement": "GI50", "setting": "NCI/ADR-RES ovarian", "result": 3, "unit": "µM"}, {"measurement": "TGI", "setting": "NCI/ADR-RES ovarian", "result": 12.4, "unit": "µM"}, {"measurement": "GI50", "setting": "OVCAR-3 ovarian", "result": 2.09, "unit": "µM"}, {"measurement": "TGI", "setting": "OVCAR-3 ovarian", "result": 5.67, "unit": "µM"}, {"measurement": "GI50", "setting": "OVCAR-4 ovarian", "result": 2.27, "unit": "µM"}, {"measurement": "TGI", "setting": "OVCAR-4 ovarian", "result": 6.09, "unit": "µM"}, {"measurement": "GI50", "setting": "OVCAR-5 ovarian", "result": 2.92, "unit": "µM"}, {"measurement": "TGI", "setting": "OVCAR-5 ovarian", "result": 19.1, "unit": "µM"}, {"measurement": "GI50", "setting": "OVCAR-8 ovarian", "result": 2.6, "unit": "µM"}, {"measurement": "TGI", "setting": "OVCAR-8 ovarian", "result": "> 100", "unit": "µM"}, {"measurement": "GI50", "setting": "PC-3 prostate", "result": 1.9, "unit": "µM"}, {"measurement": "TGI", "setting": "PC-3 prostate", "result": 5.84, "unit": "µM"}, {"measurement": "GI50", "setting": "RPMI-8226 leukemia", "result": 0.595, "unit": "µM"}, {"measurement": "TGI", "setting": "RPMI-8226 leukemia", "result": 2.89, "unit": "µM"}, {"measurement": "GI50", "setting": "RXF 393 renal", "result": 0.294, "unit": "µM"}, {"measurement": "TGI", "setting": "RXF 393 renal", "result": 0.869, "unit": "µM"}, {"measurement": "GI50", "setting": "SF-268 CNS", "result": 2.21, "unit": "µM"}, {"measurement": "TGI", "setting": "SF-268 CNS", "result": 6.95, "unit": "µM"}, {"measurement": "GI50", "setting": "SF-295 CNS", "result": 0.34, "unit": "µM"}, {"measurement": "TGI", "setting": "SF-295 CNS", "result": 1.16, "unit": "µM"}, {"measurement": "GI50", "setting": "SF-539 CNS", "result": 1.51, "unit": "µM"}, {"measurement": "TGI", "setting": "SF-539 CNS", "result": 4.78, "unit": "µM"}, {"measurement": "GI50", "setting": "SK-MEL-2 melanoma", "result": 2.02, "unit": "µM"}, {"measurement": "TGI", "setting": "SK-MEL-2 melanoma", "result": 5.46, "unit": "µM"}, {"measurement": "GI50", "setting": "SK-MEL-28 melanoma", "result": 1.76, "unit": "µM"}, {"measurement": "TGI", "setting": "SK-MEL-28 melanoma", "result": 4.82, "unit": "µM"}, {"measurement": "GI50", "setting": "SK-MEL-5 melanoma", "result": 1.79, "unit": "µM"}, {"measurement": "TGI", "setting": "SK-MEL-5 melanoma", "result": 3.23, "unit": "µM"}, {"measurement": "GI50", "setting": "SK-OV-3 ovarian", "result": 2.68, "unit": "µM"}, {"measurement": "TGI", "setting": "SK-OV-3 ovarian", "result": 7.09, "unit": "µM"}, {"measurement": "GI50", "setting": "SN12C renal", "result": 2.68, "unit": "µM"}, {"measurement": "TGI", "setting": "SN12C renal", "result": 8.95, "unit": "µM"}, {"measurement": "GI50", "setting": "SNB-19 CNS", "result": 1.83, "unit": "µM"}, {"measurement": "TGI", "setting": "SNB-19 CNS", "result": 7.14, "unit": "µM"}, {"measurement": "GI50", "setting": "SNB-75 CNS", "result": 0.286, "unit": "µM"}, {"measurement": "TGI", "setting": "SNB-75 CNS", "result": 3.37, "unit": "µM"}, {"measurement": "GI50", "setting": "SR leukemia", "result": 1.26, "unit": "µM"}, {"measurement": "TGI", "setting": "SR leukemia", "result": "> 100", "unit": "µM"}, {"measurement": "GI50", "setting": "SW-620 colon", "result": 2.37, "unit": "µM"}, {"measurement": "TGI", "setting": "SW-620 colon", "result": 7.17, "unit": "µM"}, {"measurement": "GI50", "setting": "T-47D breast", "result": 1.73, "unit": "µM"}, {"measurement": "TGI", "setting": "T-47D breast", "result": 4.73, "unit": "µM"}, {"measurement": "GI50", "setting": "TK-10 renal", "result": 2.92, "unit": "µM"}, {"measurement": "TGI", "setting": "TK-10 renal", "result": 8.03, "unit": "µM"}, {"measurement": "GI50", "setting": "UACC-257 melanoma", "result": 2.21, "unit": "µM"}, {"measurement": "TGI", "setting": "UACC-257 melanoma", "result": 5.84, "unit": "µM"}, {"measurement": "GI50", "setting": "UACC-62 melanoma", "result": 1.73, "unit": "µM"}, {"measurement": "TGI", "setting": "UACC-62 melanoma", "result": 4.09, "unit": "µM"}, {"measurement": "GI50", "setting": "UO-31 renal", "result": 2.56, "unit": "µM"}, {"measurement": "TGI", "setting": "UO-31 renal", "result": 6.56, "unit": "µM"}]}
